Reference: patent US11746102B2, “Polymorphs of selinexor” (Karyopharm Therapeutics Inc., priority 2014, dated 2023)

What was measured:
Assay type in all cases: physicochemical
[1] = Competitive slurry experiment (Form A, Form C, seed of Form B); settings: about 1:1 Form A and Form C with Form B seed; matured at 5, 25, 50° C. in ethyl acetate, 30% IPA:70% water, 30% ethanol:70% water; 72 hours and 1 week; in acetonitrile the solvate formed
Method: In a competitive slurry experiment, approximately 1:1 mixtures of Form A and Form C were prepared. The mixtures were then stirred with a seed of Form B (about 5% by weight of the mixture of Form A and Form C). The produced systems were matured at 5° C., 25° C. and 50° C. under stirring in acetonitrile, ethyl acetate, 30% IPA:70% water and 30% ethanol:70% water. The systems were analyzed by XRPD at two different time points: 72 hours and 1 week.
Form D was observed by maturation in acetonitrile. This experiment confirmed Form A as the stable form, compared to Form B and Form C, under the conditions investigated. The presence of acetonitrile led to solvate formation at all of the temperatures investigated.

[2] = Stability of Form A on exposure to humidity/temperature
Method: A comprehensive polymorphism assessment of selinexor was performed in a range of different solvents, solvent mixtures and under a number of experimental conditions based on the solubility of selinexor. Three anhydrous polymorphs of selinexor were observed by XRPD investigation, designated Form A, Form B and Form C.

[3] = Polymorphism studies (cooling, slow evaporation, maturation; XRPD); settings: 8 days maturation RT/50° C., solids analysed by XRPD
Method: Samples found as clear solutions at −20° C. were placed for slow evaporation at RT using a 25-gauge syringe needle(s) in the septum of the vial. • The solid suspensions observed in 100 volumes of the relative solvent systems at the end of the solubility assessment were placed for 8 days maturation cycling between RT and 50° C. (cycling 4 hours at RT; 4 hours at 50° C.). After the maturation, the solids were recovered and the supernatants were placed for slow evaporation. All the solids obtained by these processes were analyzed by XRPD.

[4] = Particle size analysis (Malvern MS2000, volume-based); settings: for d10: 10% of total particle volume no larger than this size, 0.1% lecithin in Isopar G dispersant; for d50: 50% of total particle volume no larger than this size; for d50 / d90 / D[4,3] Volume weighted mean: lecithin in Isopar G dispersant; for d90: 90% of total particle volume no larger than this size; for D[4,3] Volume weighted mean: in µm; for Characteristic of the particle size distribution: overlay of particle size distributions
From the text: Particle size data was acquired using a Malvern Instruments MS2000 equipped with a Hydro2000 μP dispersion unit. Data was collected and analyzed using Mastersizer 2000 v 5.60 software, using volume-based measurements. NIST-traceable glass beads were used as the reference standard.
Details of the method conditions used to analyze particle size are listed below: • Sample refractive index: 1.596 • Sample absorption: 0.001 • Dispersant: 0.100 (w/v) Lecithin in Isopar G • Dispersant refractive index: 1.42 • Pump speed: 2100 rpm • Recirculation time: 2 minutes • Sample measurement time: 30 sec. • Background measurement time: 30 sec. • Model: general purpose • Sensitivity: normal • Particle shape: irregular.
One particle size measurement of each lot of selinexor described in Examples 1-6 was collected using the particle size method conditions described above. Table 4 provides sample information and particle size analysis data for the indicated lot of selinexor under the particle size method analysis conditions described above. FIGS. 5A-5P are particle size distribution graphs and show the particle size distribution of the sample corresponding to the indicated lot of selinexor under the particle size method analysis conditions described above.

[5] = Solubility assessment (visual) of selinexor in solvents and solvent mixtures; settings: for Solubility: starting Form A

O=C(/C=C\n1cnc(-c2cc(C(F)(F)F)cc(C(F)(F)F)c2)n1)NNc1cnccn1 [Form A]
Relative stability of forms in competitive slurry [1]: stable anhydrous form | Physico-chemical stability ([2]; exposed for 4 weeks to 25° C./97% relative humidity (RH)): stable | Physico-chemical stability ([2]; exposed for 4 weeks to 40° C./75% RH): stable | Stability of the form under solvent-based experimentation [3]: stable in most of the conditions investigated

O=C(/C=C\n1cnc(-c2cc(C(F)(F)F)cc(C(F)(F)F)c2)n1)NNc1cnccn1 [Lot No. 1339-BS-142-2]
d10 ([4]; listed as 1339-BS-142-2): 6.088 μm | d50 ([4]; listed as 1339-BS-142-2): 14.468 μm | d90 ([4]; listed as 1339-BS-142-2): 33.936 μm | D[4,3] Volume weighted mean ([4]; listed as 1339-BS-142-2): 20.889 | Characteristic of the particle size distribution ([4]; listed as 1339-BS-142-2): more a unimodal characteristic

O=C(/C=C\n1cnc(-c2cc(C(F)(F)F)cc(C(F)(F)F)c2)n1)NNc1cnccn1 [Selinexor, (Z)-3-(3-(3,5-bis(trifluoromethyl)phenyl)-1H-1,2,4-triazol-1-yl)-N′-(pyrazin-2-yl)acrylohydrazide]
Solubility ([5]; 20% MeCN:80% Water, volumes of solvent): Not dissolved in 100 v | Solubility ([5]; 40% MeCN:60% Water, volumes of solvent): Not dissolved in 100 v | Solubility ([5]; 60% MeCN:40% Water, volumes of solvent): Dissolved in 50 v | Solubility ([5]; 80% MeCN:20% Water, volumes of solvent): Dissolved in 30 v | Solubility ([5]; 90% MeCN:10% Water, volumes of solvent): Dissolved in 30 v | Solubility ([5]; Acetonitrile, volumes of solvent (1 volume in μL = sample mg), assessed at 50° C. and RT): Dissolved in 70 v | Solubility (visual) ([5]; IPA:water mixtures having up to 60% water): soluble | Solubility (visual) ([5]; acetonitrile:water mixtures having up to 40% water): soluble | Solubility (visual) ([5]; heptane, 1,2-dichloroethane, toluene, cumene, diisopropylether, water and isooctane, 5 to 100 volumes): not soluble | Share of the solvent systems investigated in which soluble ([5]; thirty solvents and solvent mixtures, 50° C./RT): about 60 % of the solvent systems investigated

O=C(/C=C\n1cnc(-c2cc(C(F)(F)F)cc(C(F)(F)F)c2)n1)NNc1cnccn1 [Lot No. PC-14-009]
d10 ([4]; listed as PC-14-009): 9.665 μm | d50 ([4]; listed as PC-14-009): 24.406 μm | d90 ([4]; listed as PC-14-009): 68.445 μm | D[4,3] Volume weighted mean ([4]; listed as PC-14-009): 32.557 | Characteristic of the particle size distribution ([4]; listed as PC-14-009): more a unimodal characteristic

O=C(/C=C\n1cnc(-c2cc(C(F)(F)F)cc(C(F)(F)F)c2)n1)NNc1cnccn1 [Lot No. 1305365]
d10 ([4]; listed as 1305365): 4.905 μm | d50 ([4]; listed as 1305365): 14.268 μm | d90 ([4]; listed as 1305365): 75.098 μm | D[4,3] Volume weighted mean ([4]; listed as 1305365): 34.740

O=C(/C=C\n1cnc(-c2cc(C(F)(F)F)cc(C(F)(F)F)c2)n1)NNc1cnccn1 [Lot No. 1405463]
d10 ([4]; listed as 1405463): 12.062 μm | d50 ([4]; listed as 1405463): 27.653 μm | d90 ([4]; listed as 1405463): 64.876 μm | D[4,3] Volume weighted mean ([4]; listed as 1405463): 33.740

O=C(/C=C\n1cnc(-c2cc(C(F)(F)F)cc(C(F)(F)F)c2)n1)NNc1cnccn1 [Lot No. 1341-AK-109-2]
d10 ([4]; listed as 1341-AK-109-2): 2.815 μm | d50 ([4]; listed as 1341-AK-109-2): 10.423 μm | d90 ([4]; listed as 1341-AK-109-2): 89.782 μm | D[4,3] Volume weighted mean ([4]; listed as 1341-AK-109-2): 32.779 | Characteristic of the particle size distribution ([4]; listed as 1341-AK-109-2): distinctly bimodal

O=C(/C=C\n1cnc(-c2cc(C(F)(F)F)cc(C(F)(F)F)c2)n1)NNc1cnccn1 [Lot No. PC-14-005]
Minor tertiary mode [4]: approximately 400 μm | d10 ([4]; listed as PC-14-005): 6.363 μm | d50 ([4]; listed as PC-14-005): 18.345 μm | d90 ([4]; listed as PC-14-005): 86.906 μm | D[4,3] Volume weighted mean ([4]; listed as PC-14-005): 36.720

O=C(/C=C\n1cnc(-c2cc(C(F)(F)F)cc(C(F)(F)F)c2)n1)NNc1cnccn1 [Lot No. 1339-BS-142-1]
d10 ([4]; listed as 1339-BS-142-1): 4.978 μm | d50 ([4]; listed as 1339-BS-142-1): 11.969 μm | d90 ([4]; listed as 1339-BS-142-1): 28.331 μm | D[4,3] Volume weighted mean ([4]; listed as 1339-BS-142-1): 16.614 | Characteristic of the particle size distribution ([4]; listed as 1339-BS-142-1): more a unimodal characteristic

O=C(/C=C\n1cnc(-c2cc(C(F)(F)F)cc(C(F)(F)F)c2)n1)NNc1cnccn1 [Lot No. PC-14-008]
d10 ([4]; listed as PC-14-008): 7.658 μm | d50 ([4]; listed as PC-14-008): 18.290 μm | d90 ([4]; listed as PC-14-008): 42.616 μm | D[4,3] Volume weighted mean ([4]; listed as PC-14-008): 22.451 | Characteristic of the particle size distribution ([4]; listed as PC-14-008): more a unimodal characteristic
